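96-well plates; 48 h exposure; 5 concentrations. Endpoints by linear interpolation between flanking doses. Not reached: highest tested concentration assigned. The concentration for full growth arrest is given as TGI.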
Key:
Test in all cases: DTP human tumour cell line panel, 48 h
NCI/ADR-RES ovarian = system: NCI/ADR-RES ovarian
MDA-MB-435 = system: MDA-MB-435
HCT-116 colon = system: HCT-116 colon
U251 CNS = system: U251 CNS
BT-549 breast = system: BT-549 breast
NCI-H226 lung = system: NCI-H226 lung
CAKI-1 renal = system: CAKI-1 renal
MDA-N = system: MDA-N
SF-539 CNS = system: SF-539 CNS
T-47D breast = system: T-47D breast
NCI-H23 lung = system: NCI-H23 lung
DU-145 prostate = system: DU-145 prostate
SK-MEL-28 melanoma = system: SK-MEL-28 melanoma
HCC-2998 colon = system: HCC-2998 colon
SK-OV-3 ovarian = system: SK-OV-3 ovarian
CCRF-CEM leukemia = system: CCRF-CEM leukemia
EKVX NSCLC = system: EKVX NSCLC
UO-31 renal = system: UO-31 renal
MOLT-4 leukemia = system: MOLT-4 leukemia
OVCAR-5 ovarian = system: OVCAR-5 ovarian
UACC-62 melanoma = system: UACC-62 melanoma
A498 renal = system: A498 renal
HL-60(TB) leukemia = system: HL-60(TB) leukemia
OVCAR-3 ovarian = system: OVCAR-3 ovarian
HT29 colon = system: HT29 colon
MDA-MB-231 breast = system: MDA-MB-231 breast
SK-MEL-5 melanoma = system: SK-MEL-5 melanoma
PC-3 prostate = system: PC-3 prostate
A549 NSCLC = system: A549 NSCLC
COLO 205 colon = system: COLO 205 colon
RPMI-8226 leukemia = system: RPMI-8226 leukemia
MCF7 breast = system: MCF7 breast
OVCAR-4 ovarian = system: OVCAR-4 ovarian
SF-268 CNS = system: SF-268 CNS
SW-620 colon = system: SW-620 colon
NCI-H460 lung = system: NCI-H460 lung
SNB-19 CNS = system: SNB-19 CNS
OVCAR-8 ovarian = system: OVCAR-8 ovarian
KM12 colon = system: KM12 colon
NCI-H522 lung = system: NCI-H522 lung
RXF 393 renal = system: RXF 393 renal
HCT-15 colon = system: HCT-15 colon
IGROV1 ovarian = system: IGROV1 ovarian
M14 melanoma = system: M14 melanoma
K-562 leukemia = system: K-562 leukemia
SK-MEL-2 melanoma = system: SK-MEL-2 melanoma
ACHN renal = system: ACHN renal
SN12C renal = system: SN12C renal
SR leukemia = system: SR leukemia
LOX IMVI melanoma = system: LOX IMVI melanoma
SF-295 CNS = system: SF-295 CNS
TK-10 renal = system: TK-10 renal
786-0 renal = system: 786-0 renal
UACC-257 melanoma = system: UACC-257 melanoma
MALME-3M melanoma = system: MALME-3M melanoma
HOP-62 NSCLC = system: HOP-62 NSCLC
HS 578T breast = system: HS 578T breast

Work on `COc1cc(-c2nc3cc(F)ccc3s2)ccc1O` yielded a TGI (NCI/ADR-RES ovarian) greater than 100 µM, a TGI (MDA-MB-435) greater than 100 µM and a TGI (HCT-116 colon) greater than 100 µM. For the same compound, the TGI (U251 CNS) was greater than 100 µM, the TGI (BT-549 breast) was greater than 100 µM and the TGI (NCI-H226 lung) was greater than 100 µM. For the same compound, the TGI (CAKI-1 renal) was greater than 100 µM, the TGI (MDA-N) was greater than 100 µM and the TGI (SF-539 CNS) was greater than 100 µM. The TGI (T-47D breast) was 15.3 µM, the TGI (NCI-H23 lung) was greater than 100 µM and the TGI (DU-145 prostate) was greater than 100 µM. The TGI (SK-MEL-28 melanoma) was greater than 100 µM, the TGI (HCC-2998 colon) was 55.5 µM and the TGI (SK-OV-3 ovarian) was greater than 100 µM. The TGI (CCRF-CEM leukemia) was greater than 100 µM, the TGI (EKVX NSCLC) was 53.5 µM and the TGI (UO-31 renal) was greater than 100 µM. The TGI (MOLT-4 leukemia) was greater than 100 µM, the TGI (OVCAR-5 ovarian) was greater than 100 µM and the TGI (UACC-62 melanoma) was greater than 100 µM. It also gave a TGI (A498 renal) of 83.8 µM, a TGI (HL-60(TB) leukemia) greater than 100 µM and a TGI (OVCAR-3 ovarian) of 79.1 µM. The TGI (HT29 colon) was greater than 100 µM, the TGI (MDA-MB-231 breast) was greater than 100 µM and the TGI (SK-MEL-5 melanoma) was greater than 100 µM. It also gave a TGI (PC-3 prostate) greater than 100 µM, a TGI (A549 NSCLC) greater than 100 µM and a TGI (COLO 205 colon) greater than 100 µM. The TGI (RPMI-8226 leukemia) was greater than 100 µM, the TGI (MCF7 breast) was greater than 100 µM and the TGI (OVCAR-4 ovarian) was greater than 100 µM. For the same compound, the TGI (SF-268 CNS) was greater than 100 µM, the TGI (SW-620 colon) was greater than 100 µM and the TGI (NCI-H460 lung) was greater than 100 µM. For the same compound, the TGI (SNB-19 CNS) was greater than 100 µM, the TGI (OVCAR-8 ovarian) was greater than 100 µM and the TGI (KM12 colon) was greater than 100 µM. For the same compound, the TGI (NCI-H522 lung) was 78.4 µM, the TGI (RXF 393 renal) was greater than 100 µM and the TGI (HCT-15 colon) was greater than 100 µM. For the same compound, the TGI (IGROV1 ovarian) was greater than 100 µM, the TGI (M14 melanoma) was greater than 100 µM and the TGI (K-562 leukemia) was greater than 100 µM. The TGI (SK-MEL-2 melanoma) was greater than 100 µM, the TGI (ACHN renal) was greater than 100 µM and the TGI (SN12C renal) was greater than 100 µM. It also gave a TGI (SR leukemia) of 75.7 µM, a TGI (LOX IMVI melanoma) greater than 100 µM and a TGI (SF-295 CNS) greater than 100 µM. The TGI (TK-10 renal) was greater than 100 µM, the TGI (786-0 renal) was greater than 100 µM and the TGI (UACC-257 melanoma) was 66.3 µM. For the same compound, the TGI (MALME-3M melanoma) was greater than 100 µM.

In the case of `Cc1ccc(C(=O)OC[C@H]2CC[C@@H](n3cc(N(C)C4CCCCC4)c(=O)[nH]c3=O)O2)cc1`, the TGI (NCI/ADR-RES ovarian) is reported as 56.7 µM, the TGI (MDA-MB-435) is reported as greater than 100 µM and the TGI (HCT-116 colon) is reported as 32.4 µM. For the same compound, the TGI (U251 CNS) was 38.7 µM, the TGI (NCI-H226 lung) was 56.6 µM and the TGI (CAKI-1 renal) was greater than 100 µM. The TGI (MDA-N) was 90.7 µM, the TGI (SF-539 CNS) was 53 µM and the TGI (HOP-62 NSCLC) was 41.7 µM. The TGI (NCI-H23 lung) was greater than 100 µM, the TGI (DU-145 prostate) was greater than 100 µM and the TGI (HS 578T breast) was greater than 100 µM. The TGI (SK-MEL-28 melanoma) was greater than 100 µM, the TGI (HCC-2998 colon) was greater than 100 µM and the TGI (SK-OV-3 ovarian) was greater than 100 µM. For the same compound, the TGI (CCRF-CEM leukemia) was 93 µM, the TGI (EKVX NSCLC) was greater than 100 µM and the TGI (UO-31 renal) was 62.7 µM. The TGI (MOLT-4 leukemia) was greater than 100 µM, the TGI (OVCAR-5 ovarian) was 81 µM and the TGI (UACC-62 melanoma) was 96.2 µM. It also gave a TGI (A498 renal) of 46.8 µM, a TGI (HL-60(TB) leukemia) greater than 100 µM and a TGI (OVCAR-3 ovarian) of 54.4 µM. It also gave a TGI (HT29 colon) of 37.8 µM, a TGI (MDA-MB-231 breast) of 41.3 µM and a TGI (SK-MEL-5 melanoma) of 40.1 µM. The TGI (PC-3 prostate) was greater than 100 µM, the TGI (A549 NSCLC) was greater than 100 µM and the TGI (COLO 205 colon) was 39.5 µM. For the same compound, the TGI (RPMI-8226 leukemia) was 77.9 µM, the TGI (MCF7 breast) was 47.2 µM and the TGI (OVCAR-4 ovarian) was 68.4 µM. It also gave a TGI (SF-268 CNS) of 86.5 µM, a TGI (SW-620 colon) greater than 100 µM and a TGI (NCI-H460 lung) greater than 100 µM. For the same compound, the TGI (SNB-19 CNS) was 61.4 µM, the TGI (OVCAR-8 ovarian) was greater than 100 µM and the TGI (KM12 colon) was 40.9 µM. For the same compound, the TGI (NCI-H522 lung) was 46.6 µM, the TGI (RXF 393 renal) was 37.7 µM and the TGI (HCT-15 colon) was 93 µM. The TGI (IGROV1 ovarian) was greater than 100 µM, the TGI (M14 melanoma) was 32.6 µM and the TGI (K-562 leukemia) was greater than 100 µM. The TGI (SK-MEL-2 melanoma) was greater than 100 µM, the TGI (ACHN renal) was 79.3 µM and the TGI (SN12C renal) was 39.5 µM. It also gave a TGI (SR leukemia) greater than 100 µM, a TGI (LOX IMVI melanoma) of 38.2 µM and a TGI (SF-295 CNS) of 43.1 µM. The TGI (TK-10 renal) was 95.2 µM, the TGI (786-0 renal) was greater than 100 µM and the TGI (UACC-257 melanoma) was 98.5 µM. It also gave a TGI (MALME-3M melanoma) of 56.7 µM.

Source: PubChem BioAssay (NCI)
